Test results as given in ChEMBL document CHEMBL1201862, “PubChem BioAssay data set” (2004).
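The compound was tested at five concentrations on cells cultured in 96-well plates, with a 48-hour exposure period. Here, GI50 denotes the concentration required for 50% inhibition of growth.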 Active and inactive are the calls of the source. No stated cut-off is given here; in the data, active = GI50 up to about 1.1 µM and inactive = higher.

What was measured:
Assay in all cases: growth of human tumour cells (NCI), 48 h
786-0 = tested on: 786-0
A498 = tested on: A498
A549 = tested on: A549
BT-549 = tested on: BT-549
DU-145 = tested on: DU-145
HCT-15 = tested on: HCT-15
IGROV-1 = tested on: IGROV-1
LOX IMVI = tested on: LOX IMVI
MDA-MB-435 = tested on: MDA-MB-435
NCI-H23 = tested on: NCI-H23
NCI-H460 = tested on: NCI-H460
NCI-H522 = tested on: NCI-H522
OVCAR-4 = tested on: OVCAR-4
RPMI-8226 = tested on: RPMI-8226
SF-268 = tested on: SF-268
SK-MEL-28 = tested on: SK-MEL-28
SK-OV-3 = tested on: SK-OV-3
SN12C = tested on: SN12C
SW-620 = tested on: SW-620
UACC-62 = tested on: UACC-62

SMILES | GI50 (786-0) | GI50 (A498) | GI50 (A549) | GI50 (BT-549) | GI50 (DU-145) | GI50 (HCT-15) [µM] | GI50 (IGROV-1) | GI50 (LOX IMVI) | GI50 (MDA-MB-435) | GI50 (NCI-H23) | GI50 (NCI-H460) | GI50 (NCI-H522) | GI50 (OVCAR-4) | GI50 (RPMI-8226) | GI50 (SF-268) | GI50 (SK-MEL-28) | GI50 (SK-OV-3) | GI50 (SN12C) | GI50 (SW-620) | GI50 (UACC-62)
COC(=O)[C@@H]1c2c(oc3cc(CO)cc(O)c3c2=O)C=C[C@H]1O | 2.45 µM (inactive) | 7.26 µM (inactive) | 16.8 µM (inactive) | 2.94 µM (inactive) | 3.24 µM (inactive) | 2.7 | 10.8 µM (inactive) | 3.32 µM (inactive) | 4.15 µM (inactive) | 19 µM (inactive) | 18.6 µM (inactive) | 1.84 µM (inactive) | 3.52 µM (inactive) | 2.49 µM (inactive) | 6.19 µM (inactive) | 4.16 µM (inactive) | 20.5 µM (inactive) | 9.86 µM (inactive) | 3.11 µM (inactive) | 12.3 µM (inactive)
CC(=O)C1=C(C)O[C@@H]2O[C@H](COCc3ccccc3)[C@@H](OCc3ccccc3)[C@H](O)[C@@H]2S1 | 25.1 µM (inactive) | 25.1 µM (inactive) | 27.8 µM (inactive) | 21.8 µM (inactive) | 20.8 µM (inactive) | 21.3 | 21.1 µM (inactive) | 21 µM (inactive) | 19 µM (inactive) | 20.4 µM (inactive) | 17.5 µM (inactive) | 15 µM (inactive) | 24.7 µM (inactive) | 17.2 µM (inactive) | 15.2 µM (inactive) | 27.7 µM (inactive) | 25.1 µM (inactive) | 19.2 µM (inactive) | 26.7 µM (inactive) | 15.5 µM (inactive)
COc1cc(C2c3cc4c(cc3OC(N3CCNCC3)C2C)OCO4)cc(OC)c1OC (stereo not given) | 0.746 µM (active) | 0.726 µM (active) | 1.79 µM (inactive) | 0.579 µM (active) | 0.594 µM (active) | 0.893 | 1.17 µM (inactive) | 0.871 µM (active) | 0.269 µM (active) | 1.09 µM (active) | 0.94 µM (active) | 0.861 µM (active) | 1.66 µM (inactive) | 0.804 µM (active) | 0.836 µM (active) | 2.85 µM (inactive) | 0.476 µM (active) | 2.59 µM (inactive) | 0.445 µM (active) | 0.516 µM (active)
O=C(c1c(F)c(F)c(F)c(F)c1F)c1c(F)c(F)c(F)c(F)c1F | 0.476 µM (active) | 3.06 µM (inactive) | 3.53 µM (inactive) | 2.46 µM (inactive) | 1.96 µM (inactive) | 1.55 | 1.3 µM (inactive) | 0.71 µM (active) | 1.56 µM (inactive) | 2.48 µM (inactive) | 2.25 µM (inactive) | 0.182 µM (active) | 1.75 µM (inactive) | 0.0528 µM (active) | 2.55 µM (inactive) | 2.88 µM (inactive) | 2.39 µM (inactive) | 1.87 µM (inactive) | 1.06 µM (active) | 1.92 µM (inactive)
O=[N+]([O-])c1ccc2nc(Cl)n[n+]([O-])c2c1 | 8.3 µM (inactive) | 0.65 µM (active) | 22 µM (inactive) | 16.2 µM (inactive) | 17.9 µM (inactive) | 13.4 | 10.3 µM (inactive) | 1.8 µM (inactive) | 13.8 µM (inactive) | 15.3 µM (inactive) | 20.3 µM (inactive) | 12 µM (inactive) | 12.2 µM (inactive) | 2.89 µM (inactive) | 14.1 µM (inactive) | 18.3 µM (inactive) | 17.5 µM (inactive) | 16.1 µM (inactive) | 12.4 µM (inactive) | 14 µM (inactive)
